Data on 24 compounds can be found in patent US8268827B2, “Pyridazinone derivatives as PARP inhibitors” (Istituto di Ricerche di Biologia Molecolare P. Angeletti …, priority 2007, dated 2012).

Each structure is given as a SMILES string. Counter-ions that a name gives are not always drawn.

The target in test [1] is T1, PARP-1 (Homo sapiens, UniProt P09874).
T1 construct: purchased Trevigen 4668-500-01
Put plainly: PARP-1 SPA assay. The class given is biochemical. The method, boiled down:
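PARP-1 reaction in Tris pH 8 buffer with MgCl2, spermine, KCl, activated calf thymus DNA and a mix of [3H]-NAD, NAD and biotinylated NAD, 2 h at RT. Stopped with EDTA/streptavidin SPA beads and poly(ADP-ribose) incorporation counted by scintillation.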

Test [2] has as its system BRCA-1 silenced HeLa cells (HeLa shBRCA1-GFP). Kind of test: Proliferation assay in BRCA-1 silenced HeLa cells. The class given is cell-based. To be noted: Homo sapiens; BRCA1 silenced HeLa cells, 168 hours; read-out: CC50 in the BRCA1 silenced HeLa cells. In outline: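 Antiproliferative effect was read by Celltiter Blue fluorescence after 168 h of compound treatment at 37° C., 5% CO2. Cells were matched HeLa pairs, BRCA1-shRNA (>80% silenced, GFP) versus non-shRNA vector control, in DMEM with 10% FCS.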

T1 sequence (P09874 whole entry): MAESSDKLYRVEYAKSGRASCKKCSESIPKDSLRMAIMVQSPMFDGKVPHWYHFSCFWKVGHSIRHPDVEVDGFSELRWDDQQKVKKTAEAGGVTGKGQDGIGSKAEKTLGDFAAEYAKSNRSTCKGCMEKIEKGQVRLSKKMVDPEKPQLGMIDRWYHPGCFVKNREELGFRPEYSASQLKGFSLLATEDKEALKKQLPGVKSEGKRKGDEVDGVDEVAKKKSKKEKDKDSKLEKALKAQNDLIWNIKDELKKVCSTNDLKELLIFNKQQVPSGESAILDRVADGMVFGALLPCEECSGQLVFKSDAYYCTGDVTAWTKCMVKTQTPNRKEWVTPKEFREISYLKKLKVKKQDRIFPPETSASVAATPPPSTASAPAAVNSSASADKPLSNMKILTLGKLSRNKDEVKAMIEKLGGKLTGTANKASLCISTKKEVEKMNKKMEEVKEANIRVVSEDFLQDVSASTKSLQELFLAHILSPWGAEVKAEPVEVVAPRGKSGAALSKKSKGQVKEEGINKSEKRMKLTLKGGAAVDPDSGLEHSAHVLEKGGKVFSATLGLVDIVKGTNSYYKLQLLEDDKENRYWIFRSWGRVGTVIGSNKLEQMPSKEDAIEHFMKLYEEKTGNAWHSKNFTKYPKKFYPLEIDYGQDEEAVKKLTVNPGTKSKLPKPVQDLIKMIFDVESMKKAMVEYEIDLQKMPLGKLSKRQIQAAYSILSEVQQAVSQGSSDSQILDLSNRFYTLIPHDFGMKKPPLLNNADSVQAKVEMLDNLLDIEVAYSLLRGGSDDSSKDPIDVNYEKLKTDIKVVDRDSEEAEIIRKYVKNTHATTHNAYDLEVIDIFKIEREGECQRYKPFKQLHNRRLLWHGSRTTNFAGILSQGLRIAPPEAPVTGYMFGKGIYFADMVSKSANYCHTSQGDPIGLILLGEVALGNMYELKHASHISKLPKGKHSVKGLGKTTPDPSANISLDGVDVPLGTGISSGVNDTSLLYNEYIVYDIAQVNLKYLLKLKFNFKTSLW

For the compound `Cc1c(Cc2ccc(F)c(C(=O)N3CCN(c4cc(C(F)(F)F)ccn4)C(=O)C3)c2)n[nH]c(=O)c1C` [Example 61, 3-[4-Fluoro-3-({3-oxo-4-[4-(trifluoromethyl)pyridin-2-yl]piperazin-1-yl}carbonyl)benzyl]-4,5-dimethyl-6-oxo-1,6-dihydropyridazin-1-ium trifluoroacetate], in test [1], the IC50 (in general, the point on the concentration scale where inhibition reaches its midpoint) lay in the range of 5 to 25 nM. For the same compound, the CC50 (commonly the concentration at which the toxic effect on the cells reaches its halfway point) in test [2] was in the range of 50 to 500 nM.
Turning to `Cc1c(Cc2ccc(F)c(C(=O)N3CCN([C@@H]4CCCC[C@H]4c4ccccc4)C(=O)C3)c2)n[nH]c(=O)c1C` [Example 67, 6-[4-Fluoro-3-({3-oxo-4-[(1R,2S)-2-phenylcyclohexyl]piperazin-1-yl}carbonyl)benzyl]-4,5-dimethyl-3-oxo-2,3-dihydropyridazin-1-ium trifluoroacetate], the IC50 in test [1] is 5 to 25 nM. The CC50 in test [2] lay in the range of 50 to 500 nM.
The like results for `Cc1c(Cc2ccc(F)c(C(=O)N3CCN(CC(F)(F)F)C(=O)C3)c2)n[nH]c(=O)c1C` [Example 72, 6-(4-Fluoro-3-{[3-oxo-4-(2,2,2-trifluoroethyl)piperazin-1-yl]carbonyl}benzyl)-4,5-dimethyl-3-oxo-2,3-dihydropyridazin-1-ium trifluoroacetate] were, in that order, 5 to 25 nM and 50 to 500 nM.
Consider `Cc1c(Cc2ccc(F)c(C(=O)N3CCN(C4CCCCCC4)C(=O)C3)c2)n[nH]c(=O)c1C` [Example 73, 6-{3-[(4-Cycloheptyl-3-oxopiperazin-1-yl)carbonyl]-4-fluorobenzyl}-4,5-dimethyl-3-oxo-2,3-dihydropyridazin-1-ium trifluoroacetate], for which the IC50 in test [1] is below 5 nM. The CC50 in test [2] is below 50 nM.
Taken in the same sequence, the figures for `Cc1c(Cc2ccc(F)c(C(=O)N3CCN(C4CCOC(C)(C)C4)C(=O)C3)c2)n[nH]c(=O)c1C` (stereo not drawn) [Example 76, 6-(3-{[4-(2,2-Dimethyltetrahydro-2H-pyran-4-yl)-3-oxopiperazin-1-yl]carbonyl}-4-fluorobenzyl)-4,5-dimethylpyridazin-3(2H)-one trifluoroacetate] were below 5 nM and below 5000 nM.
Compound `Cc1c(Cc2ccc(F)c(C(=O)N3CC(=O)N(c4ccccc4)C(C)(C)C3)c2)n[nH]c(=O)c1C` [Example 77, 6-{3-[(3,3-Dimethyl-5-oxo-4-phenylpiperazin-1-yl)carbonyl]-4-fluorobenzyl}-4,5-dimethylpyridazin-3(2H)-one] registered an IC50 in test [1] below 5 nM. In addition, the CC50 in test [2] was below 50 nM.
In turn, `O=C(c1cc(Cc2cc(C(F)(F)C(F)(F)F)c(=O)[nH]n2)ccc1F)N1CCN(C2CCCC2)C(=O)C1` [Example 81, 6-{3-[(4-Cyclopentyl-3-oxopiperazin-1-yl)carbonyl]-4-fluorobenzyl}-4-(pentafluoroethyl)pyridazin-3(2H)-one] yielded a concentration for half-maximal inhibition (IC50) in test [1] of 5 to 25 nM. For the same compound, the CC50 in test [2] is 50 to 500 nM.
The compound `Cc1c(Cc2ccc(F)c(C(=O)N3CC(=O)N4CCCC[C@@H]4C3)c2)n[nH]c(=O)c1C` [Example 90, (9aR)-2-{5-[(4,5-Dimethyl-6-oxo-1,6-dihydropyridazin-3-yl)methyl]-2-fluorobenzoyl}octahydro-4H-pyrido[1,2-a]pyrazin-4-one trifluoroacetate] yielded an IC50 in test [1] below 5 nM. Besides, the CC50 in test [2] is below 50 nM.
For the compound `Cc1c(Cc2ccc(F)c(C(=O)N3CCN(c4ccc(C#N)cc4)C(=O)C3)c2)n[nH]c(=O)c1C` [Example 94, 3-(3-{[4-(4-Cyanophenyl)-3-oxopiperazin-1-yl]carbonyl}-4-fluorobenzyl)-4,5-dimethyl-6-oxo-1,6-dihydropyridazin-1-ium trifluoroacetate], in test [1], the IC50 was below 5 nM. Further, the CC50 in test [2] fell in the range of 50 to 500 nM.
The like results for `Cc1c(Cc2ccc(F)c(C(=O)N3CCN(c4ccc(S(C)(=O)=O)cc4)C(=O)C3)c2)n[nH]c(=O)c1C` [Example 95, 3-[4-Fluoro-3-({4-[4-(methylsulfonyl)phenyl]-3-oxopiperazin-1-yl}carbonyl)benzyl]-4,5-dimethyl-6-oxo-1,6-dihydropyridazin-1-ium trifluoroacetate] were, in that order, below 5 nM and 50 to 500 nM.
The compound `Cc1c(Cc2ccc(F)c(C(=O)N3CCN(C(c4cccnc4)C(F)F)C(=O)C3)c2)n[nH]c(=O)c1C` (stereo not drawn) [Example 96, 6-(3-{[4-(2,2-difluoro-1-pyridin-3-ylethyl)-3-oxopiperazin-1-yl]carbonyl}-4-fluorobenzyl)-4,5-dimethyl-3-oxo-2,3-dihydropyridazin-1-ium trifluoroacetate] registered an IC50 in test [1] of 5 to 25 nM. The CC50 in test [2] is below 5000 nM.
Taken in the same sequence, the figures for `Cc1c(Cc2ccc(F)c(C(=O)N3CCN(CC4(C)CCCO4)C(=O)C3)c2)n[nH]c(=O)c1C` (stereo not drawn) [Example 97, 6-[4-fluoro-3-({4-[(2-methyltetrahydrofuran-2-yl)methyl]-3-oxopiperazin-1-yl}carbonyl)benzyl]-4,5-dimethyl-3-oxo-2,3-dihydropyridazin-1-ium trifluoroacetate] were 5 to 25 nM and below 5000 nM.
In test [1], `Cc1c(Cc2ccc(F)c(C(=O)N3CCN([C@H]4CCOC4)C(=O)C3)c2)n[nH]c(=O)c1C` [Example 113, 6-[4-Fluoro-3-({3-oxo-4-[(3S)-tetrahydrofuran-3-yl]piperazin-1-yl}carbonyl)benzyl]-4,5-dimethylpyridazin-3(2H)-one] yielded an IC50 of 5 to 25 nM. The CC50 in test [2] is 50 to 500 nM.
Taken in the same sequence, the figures for `Cc1c(Cc2ccc(F)c(C(=O)N3CC(=O)N(C4CCCC4)[C@@H](C)C3)c2)n[nH]c(=O)c1C` [Example 114, 6-(3-{[(3S)-4-cyclopentyl-3-methyl-5-oxopiperazin-1-yl]carbonyl}-4-fluorobenzyl)-4,5-dimethylpyridazin-3(2H)-one] were 5 to 25 nM and below 50 nM.
The like results for `Cc1c(Cc2ccc(F)c(C(=O)N3CC(=O)N(C4CCCC4)[C@H](C)C3)c2)n[nH]c(=O)c1C` [Example 115, 6-(3-{[(3R)-4-cyclopentyl-3-methyl-5-oxopiperazin-1-yl]carbonyl}-4-fluorobenzyl)-4,5-dimethylpyridazin-3(2H)-one] were, in that order, 5 to 25 nM and below 5000 nM.
In test [1], `Cc1c(Cc2ccc(F)c(C(=O)N3CCN(C4CCOCC4)C(=O)C3)c2)n[nH]c(=O)c1C` [Example 120, 6-(4-fluoro-3-{[3-oxo-4-(tetrahydro-2H-pyran-4-yl)piperazin-1-yl]carbonyl}benzyl)-4,5-dimethyl-3-oxo-2,3-dihydropyridazin-1-ium trifluoroacetate] displayed an IC50 of 5 to 25 nM. Moreover, the CC50 in test [2] was below 5000 nM.
The like results for `Cc1c(Cc2ccc(F)c(C(=O)N3CC(=O)N(C4CCCCC4)C(C)C3)c2)n[nH]c(=O)c1C` (stereo not drawn) [Example 125, 3-{3-[(4-Cyclohexyl-3-methyl-5-oxopiperazin-1-yl)carbonyl]-4-fluorobenzyl}-4,5-dimethyl-6-oxo-1,6-dihydropyridazin-1-ium trifluoroacetate] were, in that order, 5 to 25 nM and below 50 nM.
With `CCc1cc(Cc2ccc(F)c(C(=O)N3CCN(C4CCCOC4)C(=O)C3)c2)n[nH]c1=O` (stereo not drawn) [Example 133, 4-ethyl-6-(4-fluoro-3-{[3-oxo-4-(tetrahydro-2H-pyran-3-yl)piperazin-1-yl]carbonyl}benzyl)-3-oxo-2,3-dihydropyridazin-1-ium trifluoroacetate], the IC50 in test [1] lay in the range of 5 to 25 nM. Moreover, the 50% cytotoxic concentration (CC50) in test [2] is 50 to 500 nM.
Taken in the same sequence, the figures for `CCc1cc(Cc2ccc(F)c(C(=O)N3CCN(CC(F)(F)F)C(=O)C3)c2)n[nH]c1=O` [Example 134, 4-ethyl-6-(4-fluoro-3-{[3-oxo-4-(2,2,2-trifluoroethyl)piperazin-1-yl]carbonyl}benzyl)-3-oxo-2,3-dihydropyridazin-1-ium trifluoroacetate] were 5 to 25 nM and below 5000 nM.
The like results for `Cc1c(Cc2ccc(F)c(C(=O)N3CC(=O)N4CCCC[C@H]4C3)c2)n[nH]c(=O)c1C(F)(F)F` [Example 135, 3-(4-Fluoro-3-{[(9aS)-4-oxooctahydro-2h-pyrido[1,2-a]pyrazin-2-yl]carbonyl}benzyl)-4-methyl-6-oxo-5-(trifluoromethyl)-1,6-dihydropyridazin-1-ium trifluoroacetate] were, in that order, 5 to 25 nM and below 50 nM.
The like results for `Cc1c(Cc2ccc(F)c(C(=O)N3CC(=O)N4CCOCC4C3)c2)n[nH]c(=O)c1C(F)(F)F` (stereo not drawn) [Example 136, 3-{4-Fluoro-3-[(6-oxohexahydropyrazino[2,1-c][1,4]oxazin-8(1H)-yl)carbonyl]benzyl}-4-methyl-6-oxo-5-(trifluoromethyl)-1,6-dihydropyridazin-1-ium trifluoroacetate] were, in that order, below 5 nM and 50 to 500 nM.
Compound `CCN1C(=O)CN(C(=O)c2cc(Cc3n[nH]c(=O)c(C)c3C)ccc2F)CC1C` (stereo not drawn) [Example 137, 6-{3-[(4-ethyl-3-methyl-5-oxopiperazin-1-yl)carbonyl]-4-fluorobenzyl}-4,5-dimethyl-3-oxo-2,3-dihydropyridazin-1-ium trifluoroacetate] gave an IC50 in test [1] of 5 to 25 nM. Besides, the CC50 in test [2] was 50 to 500 nM.
In the case of `COc1ccc(CN2C(=O)CN(C(=O)c3cc(Cc4n[nH]c(=O)c(C)c4C)ccc3F)CC2C)cc1` (stereo not drawn) [Example 138, 6-(4-fluoro-3-{[4-(4-methoxybenzyl)-3-methyl-5-oxopiperazin-1-yl]carbonyl}benzyl)-4,5-dimethyl-3-oxo-2,3-dihydropyridazin-1-ium trifluoroacetate], in test [1], the IC50 fell in the range of 5 to 25 nM. For the same compound, the cytotoxic concentration (CC50) in test [2] fell in the range of 50 to 500 nM.
`Cc1c(Cc2ccc(F)c(C(=O)N3CC(=O)N(CC(F)(F)F)C(C)C3)c2)n[nH]c(=O)c1C` (stereo not drawn) [Example 139, 6-(4-fluoro-3-{[3-methyl-5-oxo-4-(2,2,2-trifluoroethyl)piperazin-1-yl]carbonyl}benzyl)-4,5-dimethyl-3-oxo-2,3-dihydropyridazin-1-ium trifluoroacetate] yielded an IC50 in test [1] of 5 to 25 nM. In addition, the CC50 in test [2] is 50 to 500 nM.
